What was measured:
Test in all cases: relative viability (nuclei count vs DMSO), 5 days (fraction); higher = more cells survive
Bemcentinib + Navitoclax = compound: Nc1nc(Nc2ccc3c(c2)CC[C@@H](N2CCCC2)CC3)nn1-c1cc2c(nn1)-c1ccccc1CCC2 [Bemcentinib] + CC1(C)CCC(c2ccc(Cl)cc2)=C(CN2CCN(c3ccc(C(=O)NS(=O)(=O)c4ccc(N[C@H](CCN5CCOCC5)CSc5ccccc5)c(S(=O)(=O)C(F)(F)F)c4)cc3)CC2)C1 [Navitoclax] (partner 0.5 µM)
In short: (§1)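 Five library-drug doses in √10 steps were combined with a fixed anchor-drug dose, or a single drug was given alone, by pin tool to lung cancer cell lines in 1536-well plates the day after seeding. Nuclei were stained and counted after 5 days. Relative viability is the nuclei count in treated wells over that in vehicle wells, taken as the median of duplicate plates.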

[1] = compound: CC1=CC=C(C=C1)C(=O)CN2C3=C(CCCC3)SC2=N [Pifithrin_alpha] + C[C@@H](Oc1cc(-c2cnn(C3CCNCC3)c2)cnc1N)c1c(Cl)ccc(F)c1Cl [Crizotinib] (partner 1 µM)
In short: as §1

Bemcentinib + Olaparib = compound: Nc1nc(Nc2ccc3c(c2)CC[C@@H](N2CCCC2)CC3)nn1-c1cc2c(nn1)-c1ccccc1CCC2 [Bemcentinib] + O=C(c1cc(Cc2n[nH]c(=O)c3ccccc23)ccc1F)N1CCN(C(=O)C2CC2)CC1 [Olaparib] (partner 8 µM)
In short: as §1

[2] = compound: CC1=CC=C(C=C1)C(=O)CN2C3=C(CCCC3)SC2=N [Pifithrin_alpha] + O=C(CCCCCCC(=O)Nc1ccccc1)NO [Vorinostat] (partner 1 µM)
In short: as §1

NCI-H2126
relative viability (Bemcentinib + Navitoclax; first compound 0.04 µM): 0.835
relative viability (Bemcentinib + Navitoclax; first compound 0.1265 µM): 0.929
relative viability (Bemcentinib + Navitoclax; first compound 0.4 µM): 0.892
relative viability (Bemcentinib + Navitoclax; first compound 1.265 µM): 0.869
relative viability (Bemcentinib + Navitoclax; first compound 4 µM): 0.833
relative viability ([1]; first compound 1 µM): 1.03
relative viability ([1]; first compound 3.162 µM): 1.05
relative viability ([1]; first compound 10 µM): 0.886
relative viability ([1]; first compound 31.62 µM): 0.768
relative viability ([1]; first compound 100 µM): 0.953
relative viability (Bemcentinib + Olaparib; first compound 0.04 µM): 0.999
relative viability (Bemcentinib + Olaparib; first compound 0.1265 µM): 0.931
relative viability (Bemcentinib + Olaparib; first compound 0.4 µM): 0.948
relative viability (Bemcentinib + Olaparib; first compound 1.265 µM): 1.01
relative viability (Bemcentinib + Olaparib; first compound 4 µM): 0.916
relative viability ([2]; first compound 1 µM): 0.433
relative viability ([2]; first compound 3.162 µM): 0.719
relative viability ([2]; first compound 10 µM): 0.738
relative viability ([2]; first compound 31.62 µM): 0.716
relative viability ([2]; first compound 100 µM): 0.763

NCI-H647
relative viability (Bemcentinib + Navitoclax; first compound 0.04 µM): 1.14
relative viability (Bemcentinib + Navitoclax; first compound 0.1265 µM): 1.36
relative viability (Bemcentinib + Navitoclax; first compound 0.4 µM): 1.15
relative viability (Bemcentinib + Navitoclax; first compound 1.265 µM): 1.03
relative viability (Bemcentinib + Navitoclax; first compound 4 µM): 1.09
relative viability ([1]; first compound 1 µM): 0.838
relative viability ([1]; first compound 3.162 µM): 1.03
relative viability ([1]; first compound 10 µM): 0.927
relative viability ([1]; first compound 100 µM): 0.605
relative viability (Bemcentinib + Olaparib; first compound 0.04 µM): 0.479
relative viability (Bemcentinib + Olaparib; first compound 0.1265 µM): 0.666
relative viability (Bemcentinib + Olaparib; first compound 0.4 µM): 0.698
relative viability (Bemcentinib + Olaparib; first compound 1.265 µM): 0.602
relative viability (Bemcentinib + Olaparib; first compound 4 µM): 0.624
relative viability ([2]; first compound 1 µM): 0.514
relative viability ([2]; first compound 3.162 µM): 0.565
relative viability ([2]; first compound 10 µM): 0.592
relative viability ([2]; first compound 31.62 µM): 0.482
relative viability ([2]; first compound 100 µM): 0.53

ChaGo-K-1
relative viability (Bemcentinib + Navitoclax; first compound 0.04 µM): 0.872
relative viability (Bemcentinib + Navitoclax; first compound 0.1265 µM): 0.933
relative viability (Bemcentinib + Navitoclax; first compound 0.4 µM): 1.02
relative viability (Bemcentinib + Navitoclax; first compound 1.265 µM): 0.862
relative viability (Bemcentinib + Navitoclax; first compound 4 µM): 0.624
relative viability ([1]; first compound 1 µM): 1.2
relative viability ([1]; first compound 3.162 µM): 1.27
relative viability ([1]; first compound 10 µM): 1.08
relative viability ([1]; first compound 31.62 µM): 0.708
relative viability ([1]; first compound 100 µM): 1.03
relative viability (Bemcentinib + Olaparib; first compound 0.04 µM): 0.403
relative viability (Bemcentinib + Olaparib; first compound 0.1265 µM): 0.371
relative viability (Bemcentinib + Olaparib; first compound 0.4 µM): 0.467
relative viability (Bemcentinib + Olaparib; first compound 1.265 µM): 0.438
relative viability (Bemcentinib + Olaparib; first compound 4 µM): 0.423
relative viability ([2]; first compound 1 µM): 0.574
relative viability ([2]; first compound 3.162 µM): 0.836
relative viability ([2]; first compound 10 µM): 0.788
relative viability ([2]; first compound 31.62 µM): 0.524
relative viability ([2]; first compound 100 µM): 0.771

UMC-11
relative viability (Bemcentinib + Navitoclax; first compound 0.04 µM): 0.274
relative viability (Bemcentinib + Navitoclax; first compound 0.1265 µM): 0.327
relative viability (Bemcentinib + Navitoclax; first compound 0.4 µM): 0.34
relative viability (Bemcentinib + Navitoclax; first compound 1.265 µM): 0.317
relative viability (Bemcentinib + Navitoclax; first compound 4 µM): 0.307
relative viability ([1]; first compound 1 µM): 0.64
relative viability ([1]; first compound 3.162 µM): 0.758
relative viability ([1]; first compound 10 µM): 0.63
relative viability ([1]; first compound 31.62 µM): 0.515
relative viability ([1]; first compound 100 µM): 0.757
relative viability (Bemcentinib + Olaparib; first compound 0.04 µM): 0.366
relative viability (Bemcentinib + Olaparib; first compound 0.1265 µM): 0.678
relative viability (Bemcentinib + Olaparib; first compound 0.4 µM): 0.322
relative viability (Bemcentinib + Olaparib; first compound 1.265 µM): 0.352
relative viability (Bemcentinib + Olaparib; first compound 4 µM): 0.384
relative viability ([2]; first compound 1 µM): 0.342
relative viability ([2]; first compound 3.162 µM): 0.382
relative viability ([2]; first compound 10 µM): 0.343
relative viability ([2]; first compound 31.62 µM): 0.245
relative viability ([2]; first compound 100 µM): 0.256

LOU-NH91
relative viability (Bemcentinib + Navitoclax; first compound 0.04 µM): 0.639
relative viability (Bemcentinib + Navitoclax; first compound 0.1265 µM): 0.728
relative viability (Bemcentinib + Navitoclax; first compound 0.4 µM): 0.625
relative viability (Bemcentinib + Navitoclax; first compound 1.265 µM): 0.674
relative viability (Bemcentinib + Navitoclax; first compound 4 µM): 0.722
relative viability ([1]; first compound 1 µM): 0.704
relative viability ([1]; first compound 3.162 µM): 0.722
relative viability ([1]; first compound 10 µM): 0.748
relative viability ([1]; first compound 31.62 µM): 0.689
relative viability ([1]; first compound 100 µM): 0.654
relative viability (Bemcentinib + Olaparib; first compound 0.04 µM): 0.886
relative viability (Bemcentinib + Olaparib; first compound 0.1265 µM): 0.848
relative viability (Bemcentinib + Olaparib; first compound 0.4 µM): 0.942
relative viability (Bemcentinib + Olaparib; first compound 1.265 µM): 0.927
relative viability (Bemcentinib + Olaparib; first compound 4 µM): 0.937
relative viability ([2]; first compound 1 µM): 0.8
relative viability ([2]; first compound 3.162 µM): 0.868
relative viability ([2]; first compound 10 µM): 0.821
relative viability ([2]; first compound 31.62 µM): 0.597
relative viability ([2]; first compound 100 µM): 0.739

HCC-44
relative viability (Bemcentinib + Navitoclax; first compound 0.04 µM): 1.09
relative viability (Bemcentinib + Navitoclax; first compound 0.1265 µM): 1.13
relative viability (Bemcentinib + Navitoclax; first compound 0.4 µM): 1.01
relative viability (Bemcentinib + Navitoclax; first compound 1.265 µM): 1.12
relative viability (Bemcentinib + Navitoclax; first compound 4 µM): 1.02
relative viability ([1]; first compound 1 µM): 0.816
relative viability ([1]; first compound 3.162 µM): 0.742
relative viability ([1]; first compound 10 µM): 0.647
relative viability ([1]; first compound 31.62 µM): 0.515
relative viability ([1]; first compound 100 µM): 0.65
relative viability (Bemcentinib + Olaparib; first compound 0.04 µM): 1.04
relative viability (Bemcentinib + Olaparib; first compound 0.1265 µM): 1.04
relative viability (Bemcentinib + Olaparib; first compound 0.4 µM): 0.981
relative viability (Bemcentinib + Olaparib; first compound 1.265 µM): 0.974
relative viability (Bemcentinib + Olaparib; first compound 4 µM): 1.02
relative viability ([2]; first compound 1 µM): 1.04
relative viability ([2]; first compound 3.162 µM): 0.924
relative viability ([2]; first compound 10 µM): 0.91
relative viability ([2]; first compound 31.62 µM): 0.834
relative viability ([2]; first compound 100 µM): 0.902

HCC-15
relative viability (Bemcentinib + Navitoclax; first compound 0.04 µM): 0.713
relative viability (Bemcentinib + Navitoclax; first compound 0.1265 µM): 0.799
relative viability (Bemcentinib + Navitoclax; first compound 0.4 µM): 0.776
relative viability (Bemcentinib + Navitoclax; first compound 1.265 µM): 0.726
relative viability (Bemcentinib + Navitoclax; first compound 4 µM): 0.721
relative viability ([1]; first compound 1 µM): 0.921
relative viability ([1]; first compound 3.162 µM): 1.05
relative viability ([1]; first compound 10 µM): 0.755
relative viability ([1]; first compound 31.62 µM): 0.544
relative viability ([1]; first compound 100 µM): 0.861
relative viability (Bemcentinib + Olaparib; first compound 0.04 µM): 0.7
relative viability (Bemcentinib + Olaparib; first compound 0.1265 µM): 0.712
relative viability (Bemcentinib + Olaparib; first compound 0.4 µM): 0.771
relative viability (Bemcentinib + Olaparib; first compound 1.265 µM): 0.655
relative viability (Bemcentinib + Olaparib; first compound 4 µM): 0.748
relative viability ([2]; first compound 1 µM): 0.871
relative viability ([2]; first compound 3.162 µM): 0.833
relative viability ([2]; first compound 10 µM): 0.8
relative viability ([2]; first compound 31.62 µM): 0.676
relative viability ([2]; first compound 100 µM): 0.646

NCI-H1975
relative viability (Bemcentinib + Navitoclax; first compound 0.04 µM): 1.03
relative viability (Bemcentinib + Navitoclax; first compound 0.1265 µM): 1.23
relative viability (Bemcentinib + Navitoclax; first compound 0.4 µM): 1.12
relative viability (Bemcentinib + Navitoclax; first compound 1.265 µM): 1.05
relative viability (Bemcentinib + Navitoclax; first compound 4 µM): 1.2
relative viability ([1]; first compound 1 µM): 0.881
relative viability ([1]; first compound 3.162 µM): 0.8
relative viability ([1]; first compound 10 µM): 0.659
relative viability ([1]; first compound 31.62 µM): 0.537
relative viability ([1]; first compound 100 µM): 0.611
relative viability (Bemcentinib + Olaparib; first compound 0.04 µM): 0.803
relative viability (Bemcentinib + Olaparib; first compound 0.1265 µM): 0.954
relative viability (Bemcentinib + Olaparib; first compound 0.4 µM): 0.951
relative viability (Bemcentinib + Olaparib; first compound 1.265 µM): 0.849
relative viability (Bemcentinib + Olaparib; first compound 4 µM): 0.749
relative viability ([2]; first compound 1 µM): 0.626
relative viability ([2]; first compound 3.162 µM): 0.708
relative viability ([2]; first compound 10 µM): 0.579
relative viability ([2]; first compound 31.62 µM): 0.54
relative viability ([2]; first compound 100 µM): 0.529

— the supplement of paper PMC10307832
